Here are results for 7 compounds from ChEMBL document CHEMBL1201862, “PubChem BioAssay data set” (2004).

The target in one assay is fMet-Leu-Phe receptor (Homo sapiens, UniProt P21462). The assay is described as follows: FPR ligands, dose response (AID 519). It counts as functional.
A further assay concerns the target Cytochrome P450 2C9 (Homo sapiens, UniProt P11712).
A further assay concerns the target Kallikrein-7 (Homo sapiens, UniProt P49862). Description: Fluorescence Intensity-based biochemical primary high throughput dose response assay to identify activators of kallikrein-7 (K7) zymogen.
In the next assay the target is Paired box protein Pax-8 (Homo sapiens, UniProt Q06710). The assay is described as follows: inhibitors of PAX8-driven TPO luciferase reporter, dose response, RMG-I cells, cherry-pick (AID 687027).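 Also: luciferase reporter driven by Pax8 target thyroperoxidase promoter measured by SteadyGlo luminescence.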 It is filed as functional, cell-based. For orientation: A reporter such as luciferase makes a cellular process visible.
Sequence of Paired box protein Pax-8 (Q06710 whole entry): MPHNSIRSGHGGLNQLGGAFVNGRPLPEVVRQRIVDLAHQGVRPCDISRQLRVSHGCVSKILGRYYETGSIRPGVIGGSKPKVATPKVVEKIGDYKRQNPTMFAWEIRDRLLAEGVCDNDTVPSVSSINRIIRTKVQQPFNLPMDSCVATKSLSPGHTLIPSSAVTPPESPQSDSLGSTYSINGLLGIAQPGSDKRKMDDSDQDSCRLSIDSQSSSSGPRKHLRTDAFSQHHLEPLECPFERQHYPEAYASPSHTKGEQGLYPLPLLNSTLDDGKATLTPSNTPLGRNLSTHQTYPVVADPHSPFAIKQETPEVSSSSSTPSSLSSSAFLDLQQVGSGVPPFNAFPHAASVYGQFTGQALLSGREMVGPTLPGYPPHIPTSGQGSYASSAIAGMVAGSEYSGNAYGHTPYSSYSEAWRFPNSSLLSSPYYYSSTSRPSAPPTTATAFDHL
Assay [1] can be described thus: non-specific cell cytotoxicity, dose response, cytotoxicity control for PAX8 inhibitor project, plate reader, dry powder samples (AID 743021). It is filed as functional, cell-based.
The nature of assay [2]: miR-122 activators in hepatoma reporter cells, dose response, cell-based, Huh7 psiCHECK-miR122, Renilla luciferase, cherry-picked (AID 651956).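 Also: huh7 hepatoma cells stably carrying a psiCHECK-2 miR-122 sensor plasmid; renilla luciferase signal reporting endogenous miR-122 activity after 48 h compound exposure.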 It is filed as functional.
Assay [3] is described as follows: inhibitors of PGC1a acetylation in cells, dose response, cell-based, cherry-picked samples (AID 720514).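 Also: potency may reflect raised or lowered acetylation signal.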 It counts as functional.
A short description of assay [4]: NIH:OVCAR-3 ovarian cancer cell cytotoxicity, dose response, PAX8 inhibitor project, plate reader, dry powder samples (AID 743044). It counts as functional, cell-based.
Assay [5] in a line: HEK293T cytotoxicity, dose response, cytotoxicity control for miR-122 modulator project, cell-based, inhibitor set, cherry-pick, set 2 (AID 720697). It counts as functional.
The nature of assay [6]: P. falciparum Dd2 growth inhibitors, dose response, SYBR Green, cherry-picked samples (AID 1159567). It is filed as functional, cell-based.
Assay [7] in a line: HepG2 cell cytotoxicity, dose response, cytotoxicity control, cherry-picked samples (AID 1159577). It is filed as functional, cell-based.
Assay [8] deals with T1, RNA-binding protein pos-1 (Caenorhabditis elegans, UniProt G5EF15).
T1 sequence (G5EF15 whole entry): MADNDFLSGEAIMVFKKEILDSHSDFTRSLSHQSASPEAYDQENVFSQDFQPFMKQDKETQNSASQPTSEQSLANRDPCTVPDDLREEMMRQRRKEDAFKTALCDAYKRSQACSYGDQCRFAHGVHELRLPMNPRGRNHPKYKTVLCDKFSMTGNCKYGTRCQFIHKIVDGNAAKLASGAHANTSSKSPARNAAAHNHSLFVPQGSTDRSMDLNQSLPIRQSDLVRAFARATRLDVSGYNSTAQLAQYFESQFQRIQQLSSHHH
Description: inhibitors of POS-1/mex-3 RNA binding, dose response, biochemical, fluorescence polarization (AID 1964).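 Also: purified POS-1 fused to maltose binding protein made in E. coli; potency of compounds blocking POS-1 binding to fluorescent RNA.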 In general terms: In fluorescence polarisation assays a small probe gives low polarisation when free and higher when bound to something large.

The target in assay [9] is T2, Zinc finger protein mex-5 (Caenorhabditis elegans, UniProt Q9XUB2).
T2 sequence (Q9XUB2 whole entry): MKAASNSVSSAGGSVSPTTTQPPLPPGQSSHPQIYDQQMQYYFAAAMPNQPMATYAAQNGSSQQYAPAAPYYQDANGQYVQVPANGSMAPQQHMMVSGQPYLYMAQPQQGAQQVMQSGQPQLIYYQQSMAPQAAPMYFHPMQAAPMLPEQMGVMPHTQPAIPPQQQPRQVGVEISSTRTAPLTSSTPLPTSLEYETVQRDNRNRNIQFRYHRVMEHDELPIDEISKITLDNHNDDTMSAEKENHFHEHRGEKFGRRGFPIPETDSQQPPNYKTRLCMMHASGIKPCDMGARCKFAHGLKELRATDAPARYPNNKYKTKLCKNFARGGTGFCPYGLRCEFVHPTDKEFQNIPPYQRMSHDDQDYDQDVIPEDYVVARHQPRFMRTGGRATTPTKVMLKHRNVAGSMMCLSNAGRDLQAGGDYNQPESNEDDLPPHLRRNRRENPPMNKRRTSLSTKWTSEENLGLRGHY
Description: MEX-5/TCR-2 RNA interaction inhibitors, dose response, biochemical, C. elegans, fluorescence polarization (AID 1960).

The target of another assay is Mu-type opioid receptor (Homo sapiens, UniProt P35372). It counts as functional, cell-based.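 Also: U2OS cells with beta-arrestin recruitment to OPRM1 by beta-gal complementation.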
Sequence of Mu-type opioid receptor (P35372 whole entry): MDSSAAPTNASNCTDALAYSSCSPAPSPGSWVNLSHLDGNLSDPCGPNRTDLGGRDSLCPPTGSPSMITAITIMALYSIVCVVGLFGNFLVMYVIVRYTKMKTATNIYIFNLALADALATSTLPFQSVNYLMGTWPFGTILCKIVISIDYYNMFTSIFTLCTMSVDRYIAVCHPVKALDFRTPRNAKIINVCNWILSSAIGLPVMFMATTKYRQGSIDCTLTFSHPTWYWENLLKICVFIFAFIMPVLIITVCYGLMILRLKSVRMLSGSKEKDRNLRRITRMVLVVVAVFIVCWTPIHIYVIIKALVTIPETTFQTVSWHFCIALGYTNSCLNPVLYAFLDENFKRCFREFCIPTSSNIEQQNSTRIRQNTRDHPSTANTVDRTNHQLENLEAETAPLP
Assay [10] has as its target 5-hydroxytryptamine receptor 2A (Mus musculus, UniProt P35363). It is filed as functional, cell-based.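 Also: CHO-K1 cells with tagged receptor and beta-arrestin; agonist potency measured as compound-induced activation of the receptor.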
Assay [11] is described as follows: cells. It counts as functional, cell-based.
The target in assay [12] is T3, Trace amine-associated receptor 1 (Homo sapiens, UniProt Q96RJ0).
T3 sequence (Q96RJ0 whole entry): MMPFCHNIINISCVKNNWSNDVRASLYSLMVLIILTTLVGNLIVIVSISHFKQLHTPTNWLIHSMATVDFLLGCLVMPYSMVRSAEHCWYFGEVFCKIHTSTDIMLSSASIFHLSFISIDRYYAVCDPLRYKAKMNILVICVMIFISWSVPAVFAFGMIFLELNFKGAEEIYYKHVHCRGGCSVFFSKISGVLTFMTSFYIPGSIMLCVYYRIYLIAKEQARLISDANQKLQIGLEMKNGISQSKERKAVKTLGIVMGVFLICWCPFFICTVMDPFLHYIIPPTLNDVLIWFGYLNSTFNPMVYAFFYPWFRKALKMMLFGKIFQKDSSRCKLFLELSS
Description: Fluorescence-based cell-based high throughput dose response assay to identify agonists of the human trace amine associated receptor 1 (TAAR1). It is filed as functional.

Assay [13] deals with T3, Trace amine-associated receptor 1. Description: Counterscreen for agonists of the human trace amine associated receptor 1 (hTAAR1): Fluorescence-based cell-based high throughput dose response assay to identify hTAAR1 agonist that also desensitize TAAR1 receptor response. It counts as functional. (A counterscreen serves to expose hits that act by an unwanted route or on another target.)

Assay [14] in a line: cells. It is filed as functional, cell-based. The source holds these as a separate data set.

Molecules are shown by their SMILES. Activity calls are given as the source filed them. A value given as a limit tells only on which side of the number the result lay.

Sequence of Kallikrein-7 (P49862 whole entry): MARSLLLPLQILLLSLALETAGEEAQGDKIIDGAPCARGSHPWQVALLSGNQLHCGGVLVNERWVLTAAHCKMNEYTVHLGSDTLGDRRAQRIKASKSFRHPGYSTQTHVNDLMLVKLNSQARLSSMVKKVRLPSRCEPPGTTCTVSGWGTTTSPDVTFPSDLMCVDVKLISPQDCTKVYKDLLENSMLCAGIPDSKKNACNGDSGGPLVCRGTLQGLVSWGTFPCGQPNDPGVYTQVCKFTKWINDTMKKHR
Sequence of fMet-Leu-Phe receptor (P21462 whole entry): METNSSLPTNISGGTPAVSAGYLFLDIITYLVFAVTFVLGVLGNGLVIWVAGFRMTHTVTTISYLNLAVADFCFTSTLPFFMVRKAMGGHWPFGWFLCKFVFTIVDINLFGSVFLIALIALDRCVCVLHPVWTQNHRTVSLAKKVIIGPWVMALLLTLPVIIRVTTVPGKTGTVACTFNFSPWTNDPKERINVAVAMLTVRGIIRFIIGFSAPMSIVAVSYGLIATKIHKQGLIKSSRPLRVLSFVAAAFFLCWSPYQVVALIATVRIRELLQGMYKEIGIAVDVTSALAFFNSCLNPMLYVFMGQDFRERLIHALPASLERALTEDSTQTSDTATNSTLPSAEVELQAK
Sequence of Cytochrome P450 2C9 (P11712 whole entry): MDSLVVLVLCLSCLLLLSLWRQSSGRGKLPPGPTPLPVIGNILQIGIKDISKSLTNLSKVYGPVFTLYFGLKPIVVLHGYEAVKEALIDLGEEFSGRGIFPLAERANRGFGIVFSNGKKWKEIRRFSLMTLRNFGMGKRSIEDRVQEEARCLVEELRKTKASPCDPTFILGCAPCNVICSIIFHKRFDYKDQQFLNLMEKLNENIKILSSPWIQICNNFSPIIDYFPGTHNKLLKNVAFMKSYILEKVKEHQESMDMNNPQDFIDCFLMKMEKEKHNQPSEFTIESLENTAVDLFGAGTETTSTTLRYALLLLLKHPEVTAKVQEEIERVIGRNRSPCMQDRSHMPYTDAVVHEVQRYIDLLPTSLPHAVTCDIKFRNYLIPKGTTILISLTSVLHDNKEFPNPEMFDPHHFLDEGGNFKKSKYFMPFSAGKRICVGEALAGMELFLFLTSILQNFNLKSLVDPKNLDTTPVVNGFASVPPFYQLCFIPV
Sequence of 5-hydroxytryptamine receptor 2A (P35363 whole entry): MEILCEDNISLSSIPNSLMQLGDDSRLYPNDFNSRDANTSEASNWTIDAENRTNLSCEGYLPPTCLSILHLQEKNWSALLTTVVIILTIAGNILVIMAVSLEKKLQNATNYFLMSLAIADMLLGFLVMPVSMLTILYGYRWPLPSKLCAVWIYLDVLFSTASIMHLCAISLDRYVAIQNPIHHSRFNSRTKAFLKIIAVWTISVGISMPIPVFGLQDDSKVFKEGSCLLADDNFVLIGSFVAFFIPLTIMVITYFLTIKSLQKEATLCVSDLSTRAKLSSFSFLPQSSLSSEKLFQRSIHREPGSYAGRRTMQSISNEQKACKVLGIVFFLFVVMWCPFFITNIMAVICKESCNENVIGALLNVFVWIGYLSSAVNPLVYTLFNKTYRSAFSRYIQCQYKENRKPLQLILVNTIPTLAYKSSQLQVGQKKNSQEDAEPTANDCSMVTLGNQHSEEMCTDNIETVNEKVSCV

Turning to `COc1ccc(-c2c(C)oc3c(CN4CCN(CCO)CC4)c(O)ccc3c2=O)cc1OC`, the Ki at fMet-Leu-Phe receptor was > 66.7 µM (inactive). Also, on Cytochrome P450 2C9, the AC50 is 0.447 µM (inconclusive).
On to `CN(C(=O)c1cc2c(=O)n3ccccc3nc2s1)C1CCCCC1`, for which the EC50 on Kallikrein-7 was 24.8 µM (inactive).
As for `N=C(N)N/N=C(\c1ccc(F)cc1)c1ccc(C(F)(F)F)cc1`, the results for the AC50 (on Paired box protein Pax-8; in assay [1]) were 3.32 µM (active) and 39.9 µM (active), respectively.
In the case of `COc1ccc(C#Cc2ccc([C@H]3[C@@H](CO)N4CCCCN(C(=O)Nc5ccccc5)C[C@H]34)cc2)cc1`, the AC50 is 6.04 µM (active) in assay [2]; 12.5 µM (active) on Paired box protein Pax-8; 16.4 µM (active) in [3]; 30.4 µM (active) in assay [4]; 7.88 µM (active) in assay [5].
With `O=C1CN(S(=O)(=O)Cc2ccccc2)C[C@H]2[C@H](c3ccc(C#Cc4ccc(F)cc4)cc3)[C@H](CO)N12`, the results for the AC50 (at Paired box protein Pax-8; in [4]; in assay [1]) were 8.12 µM (active), 32.6 µM (active) and 56 µM (active), respectively.
Consider `O=S(=O)(Cc1ccccc1)N1CCCCN2[C@@H](CO)[C@H](c3ccc(C#Cc4ccccc4)cc3)[C@@H]2C1`, for which the AC50 in assay [6] was 4.25 µM (active); in [7], 8.93 µM (active).
In the case of `CN1C[C@H](CO)C=C2c3cccc4[nH]cc(c34)C[C@H]21`, the EC50 in assay [8] was 20.6 µM (active); in [9], 53.2 µM (inconclusive); on Mu-type opioid receptor it was 92.5 µM (inactive); in [10], 0.018 µM (active); in assay [12], 7.63 µM (active); in “cells [14]” it was > 29.9 µM (inactive). Moreover, the EC50 on Kallikrein-7 was > 7.72 µM (active). Moreover, the IC50 was > 29.9 µM (inactive) in the assay “cells [11]” and 4.58 µM (active) in assay [13].

Usually Ki stands for a dissociation constant, usually derived from enzyme kinetics or from competition with a known ligand. What is called AC50 is the concentration at which the activity in the assay is half-maximal. What is called EC50 is the concentration needed to bring the measured effect to its halfway point. The IC50 is the concentration needed to halve the response being measured.
